Results on one compound are retold here after patent US20210227837A1, “NATAMYCIN FOR THE PRESERVATION OF A BAKED PRODUCT” (DSM IP ASSETS B.V., priority 2018, published 2021).

The nature of this series: Stability of natamycin solutions in propylene glycol and aqueous sodium lactate (residual natamycin by HPLC). The settings on record: 4-7° C., pH 7.8, natamycin 1% (w/w). It is filed as physicochemical. The method, then:
Natamycin concentrations were determined using […] as follows. • HPLC system: Waters iClass • Column: Waters Symmetry C18, 4.6×150 mm, 3.5 μm, Part No. WAT200632, Column no. 1483, Lot no. 0198313011 • Column temperature: 25° C. • Eluent A: 50 mM ammonium acetate buffer pH 5.8 (with acetic acid) • Eluent B: Acetonitrile • Wash: 60% acetonitrile/40% water (v/v) • Injection volume: 10 μl • Injector temperature: 10° C. in darkness • Flow: 1 mL/min
The reverse phase HPLC uses a UV detector to determine the residual concentration of natamycin at 303 nm. A set of standard dilutions containing subsequently increasing concentrations of natamycin in methanol was made and from these a calibration curve was obtained. The concentration of natamycin should not exceed a concentration of 88 mg/L. Generally, the dilutions contained 20 mg of sample and […] of methanol.
A […] solution of sodium lactate in water (3 g) was mixed with propylene glycol (16 g) and natamycin (0.2 g) and heated until a final temperature of 105° C. to give a solution with a natamycin concentration of 1% (w/w). […] Samples of the mixtures were analyzed over time by HPLC for residual natamycin concentration. The shelf life test of the mixtures was done by storage at low temperatures (4-7° C.).

`C[C@@H]1C/C=C/C=C/C=C/C=C/[C@H](O[C@@H]2O[C@H](C)[C@@H](O)[C@H](N)[C@@H]2O)C[C@@H]2O[C@](O)(C[C@@H](O)C[C@H]3O[C@@H]3/C=C/C(=O)O1)C[C@H](O)[C@H]2C(=O)O` [natamycin]: the “Residual natamycin (%)” value reads like this: (day 0) 89%; (day 1) 88%; (day 3) 84%; (day 6) 81%; (day 10) 84%; (day 27) 71%. Further, the “Residual natamycin (%)” value by setting is: (day 38) 63%; (day 45) 62%; (day 65) 45%.
